Holding throughout (assay type): functional, cell-based
For one test, the system named is A549. Nature of the test: Cytotoxicity against human A549 cells by MTT assay.
For a further test, the system named is HeLa. In words: Cytotoxicity against human HeLa cells by MTT assay.
For the next test, the system named is BGC-823. Nature of the test: Cytotoxicity against human BGC823 cells by MTT assay.
Another test has as its system KB. In words: Cytotoxicity against human KB cells by MTT assay.
Another test has as its system HCT-8. Nature of the test: Cytotoxicity against human HCT8 cells by MTT assay.
The next test deals with Bel-7402. Nature of the test: Cytotoxicity against human Bel7402 cells by MTT assay.
The subject of the next test is A2780. Nature of the test: Cytotoxicity against human A2780 cells by MTT assay.
The next test has as its system HL-60. In words: Cytotoxicity against human HL60 cells.

SMILES strings stand for the structures.

For the molecule `CO[C@]1(CC[C@@H](C)CO)O[C@H]2C[C@H]3[C@@H]4CCC5C[C@@H](O)CC[C@]5(C)[C@H]4CC[C@]3(C)[C@@]2(O)[C@@H]1C` (some centres not stated), the IC50 in the test on A549 was > 10000 nM; in the test on HeLa, > 10 µM; in the test with BGC-823, > 10 µM; in the test on KB, > 10 µM; in the test on HCT-8, > 10 µM; with Bel-7402 it was > 10 µM. Further, the IC50 in the test with A2780 is > 10 µM.
With `CO[C@]1(CC[C@H](C)CO)O[C@H]2C[C@H]3[C@@H]4CC=C5C[C@@H](O[C@@H]6O[C@H](CO)[C@@H](O)[C@H](O[C@@H]7O[C@H](CO)[C@@H](O)[C@H](O)[C@H]7O)[C@H]6O[C@@H]6O[C@@H](C)[C@H](O)[C@@H](O)[C@H]6O)CC[C@]5(C)[C@H]4CC[C@]3(C)[C@H]2[C@@H]1C` [ICOGENIN], the 50% inhibitory concentration (IC50) in the test on HL-60 amounted to 2600 nM.
Take `C[C@@H]1CC[C@@]2(OC1)O[C@H]1C[C@H]3[C@@H]4CC=C5C[C@@H](O[C@@H]6O[C@H](CO)[C@@H](O[C@@H]7O[C@@H](C)[C@H](O)[C@@H](O)[C@H]7O)[C@H](O)[C@H]6O[C@@H]6O[C@@H](C)[C@H](O)[C@@H](O)[C@H]6O)CC[C@]5(C)[C@H]4CC[C@]3(C)[C@H]1[C@@H]2C` [DIOSCIN]: the half-inhibitory concentration (IC50) in the test on A549 came out at 810 nM; in the test with HeLa it was 0.5 µM; in the test on BGC-823, 1.08 µM; in the test with KB, 0.53 µM; in the test on HCT-8, 0.34 µM; with Bel-7402 it was 0.81 µM. In the test with A2780, this molecule yielded an IC50 of 0.87 µM.
`CO[C@]1(CC[C@@H](C)CO)O[C@H]2C[C@H]3[C@@H]4CCC5C[C@@H](O[C@H]6O[C@H](CO)[C@@H](O)[C@H](O)[C@H]6O[C@@H]6O[C@@H](C)[C@H](O)[C@@H](O)[C@H]6O)CC[C@]5(C)[C@H]4CC[C@]3(C)[C@@]2(O)[C@@H]1C` (some centres not stated): the IC50 in the test on A549 was found to be 3680 nM; in the test on HeLa, 7.8 µM; with BGC-823, 4.29 µM; in the test with KB, 5.97 µM; in the test on HCT-8, 3.38 µM; with Bel-7402, 8.3 µM. The molecule further had an IC50 with A2780 of 7.96 µM.
`CO[C@]1(CC[C@@H](C)CO)O[C@H]2C[C@H]3[C@@H]4CCC5C[C@@H](O[C@@H]6O[C@H](CO)[C@@H](O)[C@H](O)[C@H]6O)CC[C@]5(C)[C@H]4CC[C@]3(C)[C@@]2(O)[C@@H]1C` (some centres not stated): the half-inhibitory concentration (IC50) in the test with A549 was > 10000 nM; with HeLa, > 10 µM; in the test with BGC-823 it was > 10 µM; in the test with KB, > 10 µM; with HCT-8, > 10 µM; in the test with Bel-7402, > 10 µM. In addition, the half-inhibitory concentration (IC50) with A2780 is > 10 µM.
On to `C[C@@H](CC[C@@]1(O)O[C@H]2C[C@H]3[C@@H]4CC[C@@H]5C[C@@H](O[C@@H]6O[C@H](CO)[C@H](O)[C@H](O)[C@H]6O[C@@H]6O[C@H](CO)[C@@H](O)[C@H](O)[C@H]6O)CC[C@]5(C)[C@H]4CC[C@]3(C)[C@H]2[C@@H]1C)CO[C@@H]1O[C@H](CO)[C@@H](O)[C@H](O)[C@H]1O` [TIMOSAPONIN BII], for which it took 15.5 µg/mL to reach half-maximal inhibition in the test on HL-60 (IC50).
Consider `CO[C@]1(CC[C@@H](C)CO)O[C@H]2C[C@H]3[C@@H]4CCC5C[C@@H](O[C@H]6O[C@H](CO)[C@@H](O[C@@H]7O[C@H](CO)[C@@H](O)[C@H](O)[C@H]7O)[C@H](O)[C@H]6O[C@@H]6O[C@@H](C)[C@H](O)[C@@H](O)[C@H]6O)CC[C@]5(C)[C@H]4CC[C@]3(C)[C@@]2(O)[C@@H]1C` (some centres not stated), for which the 50% inhibitory concentration (IC50) in the test with A549 amounted to 1900 nM; with HeLa it was 8.31 µM; in the test with BGC-823, 7.97 µM; in the test with KB it was 5.24 µM; in the test on HCT-8 it was 6.05 µM; in the test on Bel-7402, 9.69 µM. In addition, the IC50 in the test on A2780 worked out at 8.21 µM.

For the origin of these results see ChEMBL document CHEMBL1955738, “Synthesis and antitumor activity of 5,6-dihydro-17-hydroxy icogenin analogs” (Eur J Med Chem, 2012).
